Common to all, as to assay type: cell-based, mice
Assay [1] deals with monocytic MDSCs (Ly6C+CD11b+). Kind of assay: CFSE dilution proliferation assay of CD19+ B cells with monocytic MDSCs. The settings on record: FIG. 4, w.t. MDSCs, CFSE labeled VISTA−/− responders. The method, then:
CFSE dilution proliferation assays. Naïve responder splenocytes were labeled with 5.iM CFSE (Cell trace, CFSE proliferation Kit, Molecular Probes, Eugene, Oreg.) in PBS/0.5% BSA for 10 minutes at 37° C. followed by the addition of cold 10% FBS in RPM1 for 5 minutes on ice. After three cold 10% FCS/RPMI washes, cell cultures were set up in the same manner as that for the 3H-thymidine incorporation proliferation assays described above. On culture day 4, wells were stained with monoclonal antibody (mAb): ct-CD19-PerCP (Biolegend, San Diego, Calif.) and were analyzed on a FACSCalibur flow cytometer (BD bioscience, San Jose, Calif.).
This example relates to the experiments in FIG. 4. In these experiments purified monocytic MDSCs (Ly6C+CD11b+) from 5 week LP-BM5 infected mice of the indicated strains, show differing patterns of suppression of naïve VISTA−/− spleen cell proliferation as assessed by flow cytometry. CFSE labeled VISTA−/− responder cells were cultured for […] in the presence (+) or absence (−) of ct-CD40+ IL-4, and with or without monocytic MDSCs (a) (−); (b) (+) (grey shaded curves); (c) (+), W.t. MDSCs (in black open curves); (d) (+), DNMMA treated W.t. […] MDSCs; Cells from all cultures were stained at the termination of a four day incubation, with ct-CD19 fluorochrome conjugated mAb and CFSE dilution was also assessed by FACS. […]

Assay [2] relates to Ly6C+CD11b+ MDSCs. The assay can be described thus: 3H-thymidine proliferation assay: MDSC suppression of B-cell responsiveness with VISTA−/− responder spleen cells (α-CD40 and IL-4). Particulars: FIG. 5A. The method, then: (§1) 3H-Thymidine incorporation proliferation assays. For responder cells, 5×10^5 non-infected spleen cells, which were either non-fractionated or CD19+ purified, were plated into 96 well flat bottom plates along with 1.6×105 (unless otherwise indicated) CD11b+Ly6G+, or CD11b+Ly6C+, enriched suppressor cells obtained from spleens of 5-w.p.i. LP-BM5 mice of the indicated w.t. B6 or B6 knock-out strains. […] For the percent suppression calculation, first, the percent residual responsiveness (R) was calculated as follows: R=(cpm of co-cultured responder cells and experimental suppressor cells)[…](cpm of co-cultured responder cells and control, non-infected suppressor cells)×100%. Standard deviations of the mean were determined for triplicate wells, and were statistically compared by the two-tailed, two sample equal variance, Student T test. […]
This example relates to the experiments in FIG. 5. […] The % suppression was calculated for both (A) and (B) by cpm responder 3H thymidine incorporation. […]

Assay [3] concerns Ly6C+CD11b+ MDSCs. The assay can be described thus: 3H-thymidine proliferation assay: MDSC suppression of B-cell responsiveness, w.t. B6 responder spleen cells stimulated with α-CD40 and IL-4. Particulars: FIG. 2A; MDSCs pretreated one hour with 0.8 mM L-NMMA or 80 ug/ml α-VISTA (13F3); R:S 3:1; three days. The method, then:
as §1

The test system of assay [4] is Ly6C+CD11b+ MDSCs. The assay can be described thus: 3H-thymidine proliferation assay: MDSC suppression of T-cell responsiveness, w.t. B6 responder spleen cells stimulated with Con A. Particulars: FIG. 2B, MDSCs pretreated with 0.8 mM L-NMMA or 80 ug/ml α-VISTA (13F3), R:S 3:1, three days. The method, then:
as §1

As for `CNC(=N)NCCC[C@H](N)C(=O)O` [LNMMA, NG-monomethyl-L-Arginine], in assay [1], the “restoration of B-cell proliferation curve towards control B cells stimulated in absence of MDSCs (CFSE)” value is on record as “partially restored”. The “extent of blocking of VISTA−/− MDSC suppression of B-cell responsiveness” value in the assay on Ly6C+CD11b+ MDSCs [2] (MDSC of VISTA−/− origin) is roughly 100%. For the same molecule, the “blocking of w.t. MDSC suppression of B-cell responsiveness” value with Ly6C+CD11b+ MDSCs [2] (w.t. MDSC) was “partially blocked”. In addition, in the assay on Ly6C+CD11b+ MDSCs [3], the “blocking of MDSC suppression of B-cell responsiveness” value is reported as roughly 50%. For the same molecule, the “blocking of MDSC suppression of T-cell responsiveness” value with Ly6C+CD11b+ MDSCs [4] is on record as “essentially completely dependent on iNOS/NO”.

The values above are taken from patent US11123426B2, “Use of vista agonists and antagonists to suppress or enhance humoral immunity” (THE TRUSTEES OF DARTMOUTH COLLEGE, priority 2014, dated 2021).
